Measurements: patent US20200009134A1, “Method and Compound for Modifying Circadian Clock” (Gritscience Biopharmaceuticals Co., Ltd., priority 2017, published 2020)

What was measured:
[1] = tested on: U2OS cells expressing Per2-luciferase; assay: Circadian rhythm of U2OS cells expressing Per2-luciferase; assay type: cell-based, human; conditions: for Phenotype: phase of the circadian rhythm / Phenotype: Period shortening: Cay10576 15 μM, dinaciclib 10 nM, Cdk/Crk inhibitor 10 nM, n=4 (FIG. 1b, 1c); for Phenotype: Period lengthening: IKBKB inhibitors, all at 10 μM, n=5 (FIG. 1a)
Experimental: (a) IKBKB inhibitors. The concentration of all the inhibitors was 10 μM, n=5. (b) IKBKE inhibitors.
The above experiments were conducted with the drug added to the culture media from the beginning.

[2] = tested on: U2OS cells expressing Per2-luciferase; assay: as above; assay type: cell-based, human
SCN explants = assay: Circadian rhythm of SCN explants from Per2::Luciferase mice; assay type: cell-based, mouse; conditions: applied at CT12; p<0.01, n=8
From the text: U2OS cells are just cultured cells, while the SCN is the master clock in mammals. We dissected the SCN from mice expressing the Per2::Luciferase gene which faithfully reported the circadian rhythm (Yoo et al., 2004).

[3] = applied from the beginning of the assay

SMILES	Phenotype: phase of the circadian rhythm [1]	Phenotype: Period shortening [1, 3]	Phenotype: Period lengthening [1]	also measured
COc1cc2ncn(-c3cc(OCc4ccccc4S(C)(=O)=O)c(C#N)s3)c2cc1OC [Cay10576]	delay	Period shortening, 0.3 ± 0.060 h; phase	–	Phenotype: Period shortening ([1]; applied from the beginning of the assay, listed as Cayl0576): 0.3 h
CC(C)c1[nH]n(-c2c(Cl)cccc2Cl)c2nc(Cc3ccc(OCCO)cc3)nc(=O)c1-2 [Cdk/crk inhibitor, 1-(2,6-dichlorophenyl)-6-[[4-(2-hydroxyethoxy)phenyl]methyl]-3-propan-2-yl-2H-pyrazolo[3,4-d]pyrimidin-4-one]	delay	Period shortening, 0.5 ± 0.074 h; phase	–	–
CCc1cnn2c(NCc3ccc[n+]([O-])c3)cc(N3CCCC[C@H]3CCO)nc12 [Dinaciclib]	–	Period shortening, 0.6 ± 0.050 h; phase	–	Phase delay ([2]; applied at CT6, p<0.001, n=5): 7.543 ± 0.6185 h; Phase delay ([2]; applied at CT12, p<0.0001, n=5): 5.808 ± 0.5455 h; Phase delay ([2]; applied at CTO, p<0.01, n=5): 4.092 ± 0.9062 h; Phase advance ([2]; introduced at CT18): 1.7 ± 0.81 h; Phase advance of SCN explants (SCN explants): 2.488 ± 0.7391 h; Phenotype: Period shortening ([1]; applied from the beginning of the assay, listed as dinaciclib): 0.6 h; Increase of amplitude [1, 3]: 1.78 fold
NC(=O)Nc1sc(-c2ccc(F)cc2)cc1C(N)=O [Ikk2 inhibitor iv, 2-(carbamoylamino)-5-(4-fluorophenyl)thiophene-3-carboxamide]	–	–	Period lengthening, 3.16 ± 0.167 h	–
O=C(Nc1cc(C(F)(F)F)cc(C(F)(F)F)c1)c1cc(Cl)ccc1O [Ikk2 inhibitor v, N-[3,5-bis(trifluoromethyl)phenyl]-5-chloro-2-hydroxybenzamide]	–	–	Period lengthening, 1.84 ± 0.192 h	–
NC(=O)Nc1sc(-c2ccccc2)cc1C(N)=O [Ikk2 inhibitor vi, 2-[(aminocarbonyl)amino]-5-phenyl-3-thiophenecarboxamide]	–	–	Period lengthening, 1.25 ± 0.149 h	–
